Columns and labels:
Phytophthora infestans = type: in vivo; settings: mixture of the labelled component I with component II = oxadixyl (II F), ofurace (II E), or in particular metalaxyl (II A) or R-metalaxyl (II B); tomato cv. Roter Gnom; a) curative 200 ppm, b) preventive-systemic 60 ppm relative to soil volume
Phytophthora = settings: mixture of the labelled component I, in particular in combination with metalaxyl (II A), benalaxyl (II D) or R-metalaxyl (II B); potato (Bintje); a) spray 0.02% of active ingredient, b) 0.002% based on soil volume; 5 days incubation
Protocol: 2-3 week old potato plants (Bintje variety) are grown for 3 weeks and then sprayed with a spray mixture (0.02% of active ingredient) prepared with a wettable powder of the active ingredient. After 24 hours, the treated plants are infected with a sporangia suspension of the fungus. The fungus infestation is assessed after the infected plants have been incubated for 5 days at a relative atmospheric humidity of 90-100% and 20° C.
A spray mixture (0.002% of active ingredient based on the soil volume) prepared with a wettable powder of the active ingredient is poured next to 2-3 week old potato plants (Bintje variety) which have been grown for 3 weeks. […] After 48 hours, the treated plants are infected with a sporangia suspension of the fungus. Fungus infestation is assessed after the infected plants have been incubated for 5 days at a relative atmospheric humidity of 90-100% and 20° C.

Plasmopara viticola = assay: Activity against Plasmopara viticola in grapevines; settings: mixture of the labelled component I with component II = ofurace (II E), oxadixyl (II F), or in particular metalaxyl (II A) or R-metalaxyl (II B); grapevine seedlings; 0.02% of active ingredient; assessed 6 days after infection
Protocol: Grapevine seedlings at the 4-to-5-leaf stage are sprayed to drip point with an aqueous spray mixture prepared with a wettable powder of the active ingredient mixture (0.02% of active ingredient) and, 24 hours later, infected with a sporangia suspension of the fungus. The fungus infestation is assessed 6 days after infection, during which time a relative atmospheric humidity of 95 to 100% and a temperature of 20° are maintained.

Erysiphe graminis = assay: Activity against Erysiphe graminis in barley (residual-protective and systemic action); type: in vivo; settings: mixture of the labelled component I with component II; barley; a) spray 0.02% of active ingredient, b) 0.002% based on soil volume; assessed 12 days after infection
Protocol: The infected plants are placed in a greenhouse at 22°. The fungus infestation is assessed 12 days after the infection. […] 48 hours later, the plants are dusted with conidia of the fungus. The infected plants are placed in a greenhouse at 22°. The fungus infestation is assessed 12 days after the infection.

Septoria nodorum = assay: Activity against Septoria nodorum in wheat; type: in vivo; settings: mixture of the labelled component I with component II; wheat 3-leaf stage; 60 ppm of a.i.; assessed 13 days after infection
Protocol: 13 days after the infection, the fungus infestation is assessed.

Puccinia recondita = assay: Activity against Puccinia recondita in wheat (residual-protective and systemic action); type: in vivo; settings: mixture of the labelled component I with component II; wheat; a) spray 0.02% of active ingredient, b) 0.006% based on soil volume; assessed 12 days after infection
Fusarium nivale = assay: Activity against Fusarium nivale in rye (seed dressing, field); type: in vivo; settings: mixture of the labelled component I with component II, rye cv. Tetrahell seed dressing, 20 or 6 ppm of a.i. based on seed weight
Protocol: which has been infected naturally with Fusarium nivale is dressed with the test fungicide in a roller mixer, the following concentrations being used: 20 or 6 ppm of a.i. (based on the seed weight). The infected and treated rye is sown in the open in October in plots of 3 m length and 6 seed rows, using a seed drill. 3 replications per concentration. Until the disease level is evaluated, the experimental field is subjected to the field conditions of normal crop management (preferably in a region with unbroken snow cover during the winter months). To assess the phytotoxicity, seedling emergence is scored in autumn and plant density/tillering in spring. To assess the activity of the active ingredient, the percentage of Fusarium-infected plants is evaluated early in the year, immediately after the snows have melted.

Cercospora arachidicola = assay: Residual-protective action against Cercospora arachidicola in groundnuts; type: in vivo; settings: mixture of the labelled component I with component II; groundnut plants; 0.02% of active ingredient; assessed 12 days after infection
Protocol: The plants are incubated for 72 hours at 21° and high atmospheric humidity and subsequently placed in a greenhouse until the typical foliar lesions appear. The activity of the active ingredient is assessed 12 days after the infection on the basis of number and size of the foliar lesions.

Botrytis cinerea = assay: Activity against Botrytis cinerea on apple fruits (residual-protective action); type: in vivo; settings: mixture of the labelled component I with component II = furalaxyl (II C), metalaxyl (II A) or R-metalaxyl (II B); damaged apples; 0.02% of active ingredient; one week incubation
Protocol: The treated fruits are subsequently inoculated with a spore suspension of the fungus and incubated for one week at high atmospheric humidity and approximately 20° C. The fungicidal activity of the test substance is deduced from the number of the sites of damage where rotting has been observed.

Structure (SMILES)	synergistic effect of active ingredient mixture (number and size of foliar lesions) (Phytophthora infestans)	synergistic effect of active ingredient mixture (fungus infestation) (Phytophthora)	synergistic effect of active ingredient mixture (fungus infestation) (Plasmopara viticola)	synergistic effect of active ingredient mixture (fungus infestation) (Erysiphe graminis)	activity of active ingredient mixture (fungus infestation) (Septoria nodorum)	synergistic effect of active ingredient mixture (fungus infestation) (Puccinia recondita)	synergistic effect of active ingredient mixture (percentage of Fusarium-infected plants) (Fusarium nivale)	activity of active ingredient mixture (number and size of foliar lesions) (Cercospora arachidicola)	activity of active ingredient mixture (number of sites of damage with rotting) (Botrytis cinerea)
COC=C(C(=O)OC)c1ccccc1CON=C(C)c1ccc2c(c1)OCO2 [(12), methyl 3-methoxy-2-[α-{[(α-methyl-3,4-methylenedioxybenzyl)imino]oxy}-o-tolyl]acrylate]	good synergistic effect	good synergistic effect	marked synergistic effect	–	–	–	–	–	–
CON=C(C(=O)OC)c1ccccc1CON=C(C)c1ccc(Cl)cc1 [(25), methyl 2-[α-{[(α-methyl-4-chlorobenzyl)imino]oxy}-o-tolyl]glyoxylate O-methyloxime]	–	–	–	good synergistic effect	markedly increased activity	–	–	–	–
CON=C(C(=O)OC)c1ccccc1CON=C(C)c1ccc2c(c1)OC(F)(F)O2 [(6), methyl 2-[α-{[(α-methyl-3,4-(difluoromethylenedioxy)benzyl)imino]-oxy}-o-tolyl]glyoxylate O-methyloxime]	–	good synergistic effect	marked synergistic effect	good synergistic effect	–	good synergistic effect	good synergistic effect	–	–
COC=C(C(=O)OC)c1ccccc1CON=C(c1ccc(Cl)cc1)C1CC1 [(36), methyl 3-methoxy-2-[α-{[(α-cyclopropyl-4-chlorobenzyl)imino]oxy}-o-tolyl]acrylate]	good synergistic effect	–	–	good synergistic effect	markedly increased activity	–	–	markedly increased activity	markedly increased activity
CON=C(C(=O)OC)c1ccccc1CON=C(C)c1cccc(OC(F)(F)F)c1 [(32), methyl 2-[α-{[(α-methyl-3-trifluoromethoxybenzyl)imino]oxy}-o-tolyl]glyoxylate O-methyloxime]	good synergistic effect	good synergistic effect	marked synergistic effect	good synergistic effect	markedly increased activity	good synergistic effect	good synergistic effect	markedly increased activity	markedly increased activity
COC=C(C(=O)OC)c1ccccc1CON=C(C)c1cccc(OC(F)(F)F)c1 [(18), methyl 3-methoxy-2-[α-{[(α-methyl-3-trifluoromethoxybenzyl)imino]oxy}-o-tolyl]acrylate]	–	good synergistic effect	marked synergistic effect	good synergistic effect	–	good synergistic effect	good synergistic effect	markedly increased activity	markedly increased activity
CON=C(C(=O)OC)c1ccccc1CON=C(C)c1cccc(C(F)(F)F)c1 [(35), methyl 2-[α-{[(α-methyl-3-trifluoromethylbenzyl)imino]oxy}-o-tolyl]glyoxylate O-methyloxime]	good synergistic effect	good synergistic effect	marked synergistic effect	good synergistic effect	markedly increased activity	good synergistic effect	–	–	markedly increased activity
COC=C(C(=O)OC)c1ccccc1CON=C(C)c1ccc2c(c1)OC(F)(F)O2 [(29), methyl 3-methoxy-2-[α-{[(α-methyl-3,4-(difluoromethylenedioxy)benzyl)-imino]oxy}-o-tolyl]acrylate]	–	–	–	–	–	good synergistic effect	–	–	–
COC=C(C(=O)OC)c1ccccc1CON=C(C)c1ccc(Cl)cc1 [(26), methyl 3-methoxy-2-[α-{[(α-methyl-4-chlorobenzyl)imino]oxy}-o-tolyl]acrylate]	–	–	–	–	–	–	good synergistic effect	markedly increased activity	–
CON=C(C(=O)OC)c1ccccc1CON=C(c1ccc(OC(F)(F)F)cc1)C1CC1 [(38), methyl 2-[α-{[(α-cyclopropyl-4-trifluoromethoxybenzyl)imino]oxy}-o-tolyl]glyoxylate O-methyloxime]	–	–	–	–	–	–	good synergistic effect	markedly increased activity	–
CON=C(C(=O)OC)c1ccccc1CON=C(c1ccc(F)cc1)C1CC1 [(09), methyl 2-[α-{[(α-cyclopropyl-4-fluorobenzyl)imino]oxy}-o-tolyl]glyoxylate O-methyloxime]	–	–	–	good synergistic effect	–	good synergistic effect	–	–	markedly increased activity
CON=C(C(=O)OC)c1ccccc1CON=C(c1ccc(C(F)(F)F)cc1)C1CC1 [(37)]	–	–	–	good synergistic effect	–	–	–	–	–
CON=C(C(=O)OC)c1ccccc1CON=C(c1ccc(Cl)cc1)C1CC1 [(15), methyl 2-[α-{[(α-cyclopropyl-4-chlorobenzyl)imino]oxy}-o-tolyl]glyoxylate O-methyloxime]	good synergistic effect	good synergistic effect	marked synergistic effect	good synergistic effect	–	good synergistic effect	–	markedly increased activity	markedly increased activity
COC=C(C(=O)OC)c1ccccc1CON=C(C)c1cccc(C(F)(F)F)c1 [(24), methyl 3-methoxy-2-[α-{[(α-methyl-3-trifluoromethylbenzyl)imino]oxy}-o-tolyl]acrylate]	good synergistic effect	good synergistic effect	–	good synergistic effect	markedly increased activity	–	–	markedly increased activity	markedly increased activity

— patent US6441028B2, “Microbicidal compositions” (Bayer Aktiengesellschaft, priority 1995, dated 2002)
